Tests used:
[1] = target: T1, CDK7/Cyclin H/MAT1 kinase (Homo sapiens (Human), UniProt P50613); experiment: Enzyme activity test, mobility shift assay (Table 3); format: biochemical; details: 2 mM ATP, pre-incubated 0 and 60 minutes
Experimental: IC50 values of the compounds for CDK7 kinase were detected in Wuxi Biortus Biosciences Co. Ltd.
The compound powder was dissolved in 100% DMSO to prepare a 10 mM storage solution. The storage solution was further diluted to 0.5 mM as the initial concentration, and continuously diluted 3 times to obtain 10 compound solutions with different concentrations. The compound and enzyme were pre-incubated for 0 minutes and 60 minutes, respectively, using duplicate detection.
was used as a positive control, using Mobility shift say method, to detect CDK kinase (such as CDK7, CDK9, CDK12 and CDK2) activity of the compound.

[2] = target: T1, CDK7/Cyclin H/MAT1 kinase; experiment: Enzyme activity test, mobility shift assay (Table 1); format: biochemical; details: 2 mM ATP; pre-incubated 0 and 60 minutes
[3] = target: CDK2/Cyclin El (Homo sapiens (Human), UniProt P24941); experiment: as above; format: biochemical; details: 2 mM ATP; read-out: CDK2 kinase IC50
Method in brief: (§1)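 Human CDK9/Cyclin T1 and CDK2/Cyclin E1 activity measured by mobility shift assay. Compounds tested as 10-point, 3-fold dilution series starting at 0.5 mM (diluted from 10 mM DMSO stock), in duplicate, with 0 min or 60 min compound–enzyme pre-incubation.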

[4] = target: CDK9/Cyclin Tl (Homo sapiens (Human), UniProt P50750); experiment: as above; format: biochemical; details: 2 mM ATP; read-out: CDK9 kinase IC50
CDK9/Cyclin Tl, sequence (P50750 whole entry): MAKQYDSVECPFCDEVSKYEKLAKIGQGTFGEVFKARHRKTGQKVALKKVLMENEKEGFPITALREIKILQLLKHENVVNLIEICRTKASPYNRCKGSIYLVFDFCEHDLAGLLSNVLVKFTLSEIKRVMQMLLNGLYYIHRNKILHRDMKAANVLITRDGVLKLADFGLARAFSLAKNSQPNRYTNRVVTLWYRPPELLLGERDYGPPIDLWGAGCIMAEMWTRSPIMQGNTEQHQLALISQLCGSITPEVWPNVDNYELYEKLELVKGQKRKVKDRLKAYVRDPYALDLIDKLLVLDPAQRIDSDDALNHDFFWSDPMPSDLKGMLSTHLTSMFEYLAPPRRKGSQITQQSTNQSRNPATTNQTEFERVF
CDK9/Cyclin Tl, sequence (O60563 whole entry partner): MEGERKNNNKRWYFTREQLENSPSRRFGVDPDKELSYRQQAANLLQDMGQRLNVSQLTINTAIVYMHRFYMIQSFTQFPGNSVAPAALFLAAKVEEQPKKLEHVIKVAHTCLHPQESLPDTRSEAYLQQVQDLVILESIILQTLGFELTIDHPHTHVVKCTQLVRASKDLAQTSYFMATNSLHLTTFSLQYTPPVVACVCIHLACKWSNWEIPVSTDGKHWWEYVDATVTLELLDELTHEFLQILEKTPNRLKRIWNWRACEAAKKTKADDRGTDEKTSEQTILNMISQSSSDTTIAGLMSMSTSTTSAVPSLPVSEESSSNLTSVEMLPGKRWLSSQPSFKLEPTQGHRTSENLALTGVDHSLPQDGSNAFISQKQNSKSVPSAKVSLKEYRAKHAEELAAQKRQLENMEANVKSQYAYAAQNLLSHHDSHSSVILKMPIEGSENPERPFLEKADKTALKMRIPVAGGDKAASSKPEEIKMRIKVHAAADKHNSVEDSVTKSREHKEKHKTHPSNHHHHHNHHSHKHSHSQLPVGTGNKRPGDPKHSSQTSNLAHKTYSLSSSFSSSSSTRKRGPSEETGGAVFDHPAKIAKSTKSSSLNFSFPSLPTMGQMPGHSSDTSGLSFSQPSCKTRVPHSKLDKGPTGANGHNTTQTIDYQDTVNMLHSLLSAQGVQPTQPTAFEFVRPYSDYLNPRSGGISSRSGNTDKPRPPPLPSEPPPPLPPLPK
Method in brief: as §1

[5] = target: CDK12 (aa686-1082)/Cyclin K (Homo sapiens (Human), UniProt Q9NYV4); experiment: as above; format: biochemical; details: 2 mM ATP; read-out: CDK12 kinase IC50
CDK12 (aa686-1082)/Cyclin K, sequence (Q9NYV4 686-1082): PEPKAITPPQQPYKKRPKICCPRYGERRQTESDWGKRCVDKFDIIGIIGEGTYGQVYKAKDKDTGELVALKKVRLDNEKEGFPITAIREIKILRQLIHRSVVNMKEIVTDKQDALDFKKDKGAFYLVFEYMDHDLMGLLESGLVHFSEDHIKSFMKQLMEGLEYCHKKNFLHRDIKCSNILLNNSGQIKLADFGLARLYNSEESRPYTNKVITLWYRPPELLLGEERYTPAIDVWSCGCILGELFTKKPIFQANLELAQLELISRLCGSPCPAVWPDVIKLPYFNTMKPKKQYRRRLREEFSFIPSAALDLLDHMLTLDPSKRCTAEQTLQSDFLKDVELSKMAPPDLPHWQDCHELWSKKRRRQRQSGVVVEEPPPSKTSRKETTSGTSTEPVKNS
CDK12 (aa686-1082)/Cyclin K, sequence (O75909 whole entry partner, the tested form may be a part): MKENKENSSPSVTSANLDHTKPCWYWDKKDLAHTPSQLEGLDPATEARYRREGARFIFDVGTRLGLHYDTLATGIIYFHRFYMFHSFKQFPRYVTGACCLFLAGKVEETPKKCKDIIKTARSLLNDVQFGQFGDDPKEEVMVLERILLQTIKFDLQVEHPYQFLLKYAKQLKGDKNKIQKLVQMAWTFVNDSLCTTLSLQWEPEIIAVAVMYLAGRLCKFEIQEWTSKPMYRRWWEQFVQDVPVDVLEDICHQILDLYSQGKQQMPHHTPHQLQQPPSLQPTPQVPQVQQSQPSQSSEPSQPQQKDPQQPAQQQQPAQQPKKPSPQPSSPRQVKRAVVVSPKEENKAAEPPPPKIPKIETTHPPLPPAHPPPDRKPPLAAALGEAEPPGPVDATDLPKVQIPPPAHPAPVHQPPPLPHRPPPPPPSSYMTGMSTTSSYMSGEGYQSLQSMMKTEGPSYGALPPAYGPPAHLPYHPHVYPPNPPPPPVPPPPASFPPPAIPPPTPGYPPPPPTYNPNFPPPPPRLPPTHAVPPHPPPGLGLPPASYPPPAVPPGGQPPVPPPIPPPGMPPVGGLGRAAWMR
Method in brief: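 Mobility shift kinase assay on CDK9/Cyclin T1 and CDK12 (aa686-1082)/Cyclin K. Ten-point 3-fold dilution series started from a 0.5 mM intermediate solution in DMSO, with compound–enzyme pre-incubation of 0 or 60 min, in duplicate. Staurosporine served as positive control.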

[6] = test system: colorectal cancer cells WiDr; experiment: Cell anti-proliferation experiment, MTT (Table 2); format: cell-based, human; details: incubate 3 days
Text: (§2) Human breast cancer cells MDA-MB 231, MDA-MB453, ovarian cancer cells OVCAR3 and A2780, colorectal cancer cells HCT-116 and WiDr, and lung cancer cell Calu-6 were purchased from BNCC. DMEM medium (Bio-Channel), DMSO (dimethyl sulfoxide), MTT (thiazole blue), 0.25% EDTA-Tripsin (pancreatin digestive juice), 1×PBS (phosphate buffer, PH7.2), 96-well plate (Corning), fetal bovine serum (FBS), 10,000 U/mL penicillin-G/streptomycin, high-speed freezing centrifuge (EPPENDORF 5810R), enzyme-linked immunosorbent assay (Tecan Spark).
(§3) 1. Cell Plating • A) Tumor cells were cultured to 80-90% density in DMEM (high sugar, containing 10% FBS and 100 U/mL penicillin-G/streptomycin) at 37° C., 5% CO2 and saturated humidity. • B) The culture medium was removed from the 10 cm culture dish. • C) Cells were washed with 10 ml 1×PBS. • D) 4 ml of 0.25% EDTA-Tripsin was added to an incubator to digest pancreatin for 5 minutes at 37° C. and 5% CO2, transferred to a 15 ml centrifuge tube, centrifuged for 5 minutes at 200 g, and supernatant was discarded to obtain cell precipitation. • E) The cell precipitation was resuspended with 4 ml DMEM medium, counted and adjusted to 50,000 cells/ml. • F) Cell suspension was added to a 96-well plate with a volume of 100 μL per well and cultured overnight in a 5% CO2 incubator at 37° C.
(§4) Compound Dilution • A) Preparing the tested compound gradient dilution solution: the tested compounds were prepared into 10 mM and 1 mM storage solution respectively. Firstly, 1 μl and 0.5 μl of 10 mM storage solution were dissolved in 1 ml of DMSO-free culture solution, respectively, to obtain diluted compounds with concentrations of 10 and 5 μM. Then, 1.5 μl of 1 mM storage solution was dissolved in 1.5 ml of DMSO-free culture solution to obtain a dilution compound with a concentration of 1 μM, and then diluted with a 3-fold continuous gradient with […] culture solution for a total of 7 concentrations. The concentrations of all 10 diluted compounds mentioned above were as follows: • 10 μM, 5 μM, 1 μM, 333.33 nM, 111.11 nM, 37.03 nM, 12.35 nM, 4.15 nM, 1.37 nM, 0.46 nM • B) After full mixing, 100 μL of culture compound solution was taken to replace the culture solution in the cell culture plate, with 4 duplicated wells at each concentration; • C) The cells were transferred to incubator to incubate for 3 days.
(§5) 3. MTT Detection • A) The cell culture plate was taken out and added with 5 mg/ml MTT 10 μL in the biosafety cabinet; • B) The cell culture plate was put back into the incubator and continued to incubate for 3 hours; • C) The cell culture plate was taken out to remove the culture solution, 100 μL isopropanol (containing 0.4 mM HCl, 0.1% NP-40) was added, shaking at room temperature for 30 minutes; • D) The absorbance value was measured at 570 nm on TECAN enzyme linked immunosorbent assay.

[7] = test system: ovarian cancer cells A2780; experiment: Cell anti-proliferation experiment, MTT (Table 2); format: cell-based, human; details: incubate 3 days
Text: as §2, §3, §4, §5

[8] = test system: breast cancer cells MDA-MB 231; experiment: Cell anti-proliferation experiment, MTT (Table 2); format: cell-based; details: Homo sapiens, MDA-MB-231, 72 h, incubate 3 days
Text: as §2, §3, §4, §5

[9] = test system: ovarian cancer cells OVCAR3; experiment: Cell anti-proliferation experiment, MTT (Table 2); format: cell-based; details: Homo sapiens, OVCAR-3, 72 h, incubate 3 days
Text: as §2, §3, §4, §5

[10] = test system: breast cancer cells MDA-MB453; experiment: Cell anti-proliferation experiment, MTT (Table 2); format: cell-based; details: Homo sapiens, MDA-MB-453, 72 h, incubate 3 days
Text: as §2, §3, §4, §5

[11] = test system: lung cancer cell Calu-6; experiment: Cell anti-proliferation experiment, MTT (Table 2); format: cell-based; details: Homo sapiens, Calu-6, 72 h, incubate 3 days
Text: as §2, §3, §4, §5

T1 sequence (P50613 whole entry): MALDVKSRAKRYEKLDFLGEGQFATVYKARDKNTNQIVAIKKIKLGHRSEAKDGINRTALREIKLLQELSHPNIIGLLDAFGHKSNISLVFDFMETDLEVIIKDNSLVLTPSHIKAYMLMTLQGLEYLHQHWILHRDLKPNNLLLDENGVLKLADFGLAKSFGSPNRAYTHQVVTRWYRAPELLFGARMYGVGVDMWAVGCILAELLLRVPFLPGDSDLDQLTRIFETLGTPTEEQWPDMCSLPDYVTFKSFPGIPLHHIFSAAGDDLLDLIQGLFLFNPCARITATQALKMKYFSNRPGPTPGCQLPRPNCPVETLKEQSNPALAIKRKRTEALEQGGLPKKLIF
T1 sequence (P51946 whole entry partner): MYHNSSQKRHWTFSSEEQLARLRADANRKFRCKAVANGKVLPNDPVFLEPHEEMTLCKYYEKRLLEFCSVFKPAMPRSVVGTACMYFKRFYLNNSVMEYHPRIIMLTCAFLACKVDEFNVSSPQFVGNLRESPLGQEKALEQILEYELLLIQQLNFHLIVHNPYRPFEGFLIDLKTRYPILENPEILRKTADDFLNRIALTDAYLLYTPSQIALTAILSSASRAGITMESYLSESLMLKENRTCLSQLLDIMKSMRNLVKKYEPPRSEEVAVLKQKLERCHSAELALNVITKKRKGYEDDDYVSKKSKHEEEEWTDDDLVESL
T1 sequence (P51948 whole entry partner): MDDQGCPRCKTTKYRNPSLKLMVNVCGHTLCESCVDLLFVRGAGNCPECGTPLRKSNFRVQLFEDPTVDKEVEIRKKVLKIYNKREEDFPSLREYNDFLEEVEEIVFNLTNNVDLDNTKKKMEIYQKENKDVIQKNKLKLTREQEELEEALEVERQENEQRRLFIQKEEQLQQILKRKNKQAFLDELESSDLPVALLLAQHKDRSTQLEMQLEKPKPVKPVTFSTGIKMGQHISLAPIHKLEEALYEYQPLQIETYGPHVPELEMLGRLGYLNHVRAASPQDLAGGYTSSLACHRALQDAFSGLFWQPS

| SMILES | IC50 [2] | IC50 [3] | IC50 [4] | IC50 [5] | IC50 ([7]; Homo sapiens, A2780, 72 h) | IC50 [9] | also measured |
| --- | --- | --- | --- | --- | --- | --- | --- |
| CC1(C)CC[C@H](Nc2ncc(C(F)(F)F)c(-c3c[nH]c4c(P(C)(C)=O)c(N5CCCCC5=O)ccc34)n2)CN1 [Example 02] | – | – | – | – | – | – | IC50 [1]: < 10 nM |
| Cc1cc(Nc2ncc(C(F)(F)F)c(-c3c[nH]c4cc(C#N)ccc34)n2)n[nH]1 [Example 12] | – | – | – | – | – | – | IC50 [1]: 10 to 500 nM |
| CC1(C)CC[C@H](Nc2ncc(C(F)(F)F)c(-c3c[nH]c4c(S(=O)(=O)C5CCCC5)c(C#N)ccc34)n2)CN1 [Example 23] | – | – | – | – | – | – | IC50 [1]: < 10 nM |
| CC1(C)CC[C@H](Nc2nc(-c3c[nH]c4c(P(C)(C)=O)c(C#N)ccc34)c3ccccc3n2)CN1 [Example 24] | – | – | – | – | – | – | IC50 [1]: 10 to 500 nM |
| Cc1cc(Nc2ncc(C(F)(F)F)c(-c3c[nH]c4c(P(C)(C)=O)c(C#N)ccc34)n2)n[nH]1 [Example 28] | – | – | – | – | – | – | IC50 [1]: < 10 nM |
| COC(=O)N[C@H]1CCC[C@@H](Nc2ncc(C(F)(F)F)c(-c3c[nH]c4c(P(C)(C)=O)c(C#N)ccc34)n2)C1 [Example 66] | – | – | – | – | – | – | IC50 [1]: < 10 nM |
| COC(=O)Nc1ccc2c(-c3nc(N[C@H]4CCCNC4)ncc3C(F)(F)F)c[nH]c2c1C1CC1 [Example T-17] | < 50 nM | > 500 nM | > 500 nM | > 500 nM | 4.76 nM | – | IC50 ([6]; Homo sapiens, WiDr, 72 h): 26.8 nM |
| COC(=O)Nc1ccc2c(-c3nc(N[C@H]4CCCNC4)ncc3C(F)(F)F)c[nH]c2c1C(F)(F)F [Example T-34] | < 50 nM | > 500 nM | > 500 nM | > 500 nM | 8.73 nM | 215 nM | IC50 [8]: 573 nM; IC50 [10]: 120 nM |
| COC(=O)Nc1ccc2c(-c3nc(N[C@H]4CCC(C)(C)NC4)ncc3C(F)(F)F)c[nH]c2c1Br [Example T-36] | < 50 nM | > 500 nM | > 500 nM | > 500 nM | – | 197 nM | IC50 [8]: 471 nM; IC50 [11]: 209 nM; IC50 [10]: 116 nM |
| C=C(C)c1c(NC(=O)OC)ccc2c(-c3nc(N[C@H]4CCCNC4)ncc3C(F)(F)F)c[nH]c12 [Example T-70] | < 50 nM | > 500 nM | > 500 nM | > 500 nM | – | – | IC50 [6]: 45.5 nM; IC50 [7]: 4.47 nM |
| COC(=O)Nc1ccc2c(-c3nc(N[C@H]4CCC5(CC5)NC4)ncc3C(F)(F)F)c[nH]c2c1Cl [Example T-81] | < 50 nM | > 500 nM | > 500 nM | > 500 nM | 1.26 nM | 55.5 nM | – |
| COC(=O)Nc1ccc2c(-c3nc(N[C@H]4CCC(C)(C)NC4)ncc3C(F)(F)F)c[nH]c2c1OCC(F)(F)F [Example T-91] | < 50 nM | – | – | – | 8.75 nM | 80.2 nM | – |
| COC(=O)Nc1ccc2c(-c3nc(N[C@H]4CCCNC4)ncc3C(F)(F)F)c[nH]c2c1C(C)=O [Example T-98] | – | – | – | – | 5.55 nM | 127 nM | – |
| COC(=O)Nc1ccc2c(-c3nc(N[C@H]4CCCNC4)ncc3C(F)(F)F)c[nH]c2c1C(C)(F)F [Example T-99] | < 50 nM | – | – | – | 1.54 nM | 53.4 nM | – |
| COC(=O)Nc1ccc2c(-c3nc(N[C@H]4CCCNC4)ncc3C(F)(F)F)c[nH]c2c1OC(F)(F)F [Example T-122] | < 50 nM | – | – | – | 0.54 nM | – | – |
| COC(=O)Nc1ccc2c(-c3nc(N[C@H]4CCC5(CC5)NC4)ncc3C(F)(F)F)c[nH]c2c1C1CC1 [Example T-128] | < 50 nM | > 500 nM | > 500 nM | > 500 nM | 8.68 nM | 9.08 nM | – |
| COC(=O)Nc1ccc2c(-c3nc(N[C@H]4CCC(C)(C)NC4)ncc3C(F)(F)F)c[nH]c2c1OC [Example T-132] | < 50 nM | > 500 nM | > 500 nM | > 500 nM | 4.52 nM | 100 nM | – |
| COC(=O)Nc1ccc2c(-c3nc(N[C@H]4CCC5(CC5)NC4)ncc3C(F)(F)F)c[nH]c2c1C(C)=O [Example T-135] | < 50 nM | > 500 nM | > 500 nM | > 500 nM | 4.61 nM | 161 nM | – |
| COC(=O)Nc1ccc2c(-c3nc(N[C@H]4CCC5(CC5)NC4)ncc3C(F)(F)F)c[nH]c2c1Br [Example T-142] | < 50 nM | > 500 nM | > 500 nM | > 500 nM | 5.05 nM | 120 nM | – |
| COC(=O)Nc1ccc2c(-c3nc(N[C@H]4CCC5(CC5)NC4)ncc3C(F)(F)F)c[nH]c2c1OCC(F)(F)F [Example T-150] | < 50 nM | > 500 nM | > 500 nM | > 500 nM | 13.5 nM | 161 nM | – |
| COC(=O)Nc1ccc2c(-c3nc(N[C@H]4CCC5(CC5)NC4)ncc3C(F)(F)F)c[nH]c2c1C(F)F [Example T-156] | < 50 nM | > 500 nM | > 500 nM | > 500 nM | 1.23 nM | – | – |

Source: patent US20230295130A1, “COMPOUND USEFUL AS CDK7 KINASE INHIBITOR AND USE THEREOF” (TYK MEDICINES, INC., priority 2020, published 2023)
